Data published in patent US11382889B2, “NRF2 activators for the prevention and/or treatment of axonal degeneration” (priority 2018, dated 2022).
Where a name gives a salt, the structure may show the parent alone.

System: Abcd1− mice spinal cord
Test: Inflammatory profile (quantitative RT-PCR) and oxidative lesions (GC/MS) in Abcd1− mice spinal cord
Format: in vivo
Conditions: 12 months of age
Description: a) Th1 (Nfκb2, Il1β, Il6, Tnfα, Tnfrsf1a, Ccl5, Cxcl9, Cxcl10, Ccr6) and b) Th2 (Fizz1, Chil3, Cxcl12, Il10, Igf1, Mif, Tgfβ1) inflammatory profile in WT (n=8), Abcd1^− (n=8) and Abcd1^−+DMF (n=8) mice spinal cord at 12 months of age. Cytokines, chemokines and other inflammation-related genes expression was measured by quantitative RT-PCR. Gene expression levels were normalized relative to Rplp0. Quantification is depicted as fold change to WT mice. c) Oxidative lesions to lipids and proteins in WT (n=5), Abcd1^− (n=5) and Abcd1^−+DMF (n=5) mice spinal cord at 12 months of age. AASA, CEL, CML and MDAL levels were measured by GC/MS. Quantification is represented as fold change to WT mice. Data are shown as mean±SD (*p<0.05, **p<0.01, ***p<0.001 after one-way ANOVA test followed by Tukey's post-hoc test; p<0.05, p<0.01, p<0.001 after non-parametric Kruskal-Wallis' test).
Cages contained 3 to 5 animals.
We used two X-ALD mouse models in this study. We characterized the biochemical signs of adult X-ALD in Abcd1^− mice at 12 months of age. These mice show biochemical signs of pathology, including oxidative stress and energetic homeostasis impairment, before the first clinical signs of AMN-like pathology (axonopathy and locomotor impairment) appear at 20 months.
For biochemical analysis, we killed the mice and stored the tissues at −80° C. after snap-freezing them in liquid nitrogen. For histological analysis, spinal cord was harvested from 18-month-old mice after perfusing them with 4% paraformaldehyde (PFA; Sigma-Aldrich, Ref. 441244) in 0.1 M phosphate buffer pH 7.4. Histological and behavioural tests were performed in a blind way with respect to the animal's genotype and for the treatment administered.
In Abcd1^− mouse, a functional genomics assay detected NFκB-mediated inflammatory pathway activation in Abcd1^− mouse spinal cord, and increased expression of several proinflammatory genes. Regarding AMN patients, we have recently described a general dysregulation of inflammatory pathways in peripheral blood mononuclear cells (PBMCs) and plasma from AMN patients. As DMF is a classical immunomodulatory drug, we examined its effects on mRNA expression of several inflammation-related genes in Abcd1^− mice spinal cord.
Nuclear factor kappa B subunit 2 (Nfκb2), which belongs to the non-canonical NFκB pathway, as well as the majority of M1 markers were increased in Abcd1^− mouse spinal cord, including interleukin 1 beta (Il1β), tumour necrosis factor alpha (Tnfα), tumour necrosis factor receptor superfamily member 1a (Tnfrsf1a), chemokine (C-C motif) ligand 5 (Ccl5), chemokine (C-X-C motif) ligand 9 (Cxcl9), chemokine (C-X-C motif) ligand 10 (Cxcl10) and chemokine (C-C motif) receptor type 6 (Ccr6) (FIG. 2a). […] Only few of them were decreased in Abcd1^− mouse spinal cord: interleukin 6 ([…]), resistin like alpha (Retnla, also called Fizz1) and macrophage migration inhibitory factor (Mif) (FIG. 2a-b).

[1] = Abcd1− mouse spinal cord, DMF 100 mg/kg/day in chow

SMILES: COC(=O)/C=C/C(=O)OC [DMF, dimethyl fumarate]
- oxidative damage to proteins and lipids (AASA, CEL, CML, MDAL) (Abcd1− mice spinal cord, DMF 100 mg/kg/day in chow for 4 months): prevents
- Il1β and Chil3 mRNA [1]: exacerbated the induction
- Tnfrsf1a, Cxcl9 and Fizz1 mRNA [1]: no effect
- interleukin 10 (Il10) mRNA [1]: upregulated
- mRNA levels of Nfκb2, Il6, Tnfα, Ccl5, Cxcl10, Ccr6, Mif, Cxcl12, Tgfβ1, Igf1 [1]: normalizing
